Source: ChEMBL document CHEMBL6153080, “Synthesis and Chemical Structure of the Cyclic Heptapeptide Stylissamide H” (J Nat Prod, 2025)

Test system: HeLa
Assay: Cytotoxicity against human HeLa cells incubated for 24 hrs by WST-8 assay
Assay type: functional, cell-based

Row | Structure (SMILES) | EC50 [µM]
1 | CC[C@H](C)[C@@H]1NC(=O)[C@@H]2CCCN2C(=O)[C@H](Cc2c[nH]c3ccccc23)NC(=O)[C@@H]2CCCN2C(=O)[C@H](C(C)C)NC(=O)[C@H](Cc2ccccc2)NC(=O)[C@H](CO)NC1=O | 78
2 | CCC(C)[C@@H]1NC(=O)[C@@H]2CCCN2C(=O)[C@H](Cc2c[nH]c3ccccc23)NC(=O)[C@@H]2CCCN2C(=O)[C@@H](C(C)C)NC(=O)[C@H](Cc2ccccc2)NC(=O)[C@H](CO)NC1=O (single isomer, unassigned) | 61
